# According to US7619059B2, “Bimolecular optical probes” (Life Technologies Corporation, priority 2003, dated 2009):
# Experiments:
# [1] = biological target: T1, GSK3β (Homo sapiens, UniProt P49841); assay: Z′-Lyte TR-FRET kinase assay, GSK3β; format: biochemical; conditions: 400 nM substrate, 0.25 μg/ml GSK3β; read-out: ATP EC50 (ATP titration) GSK3β
# T1 construct: purchased PV3270/29135A
# [2] = biological target: T2, GSK3α (Homo sapiens, UniProt P49840); assay: Z′-Lyte TR-FRET kinase assay, GSK3α; format: biochemical; conditions: 400 nM substrate, 0.03 μg/ml GSK3α; read-out: ATP EC50 (ATP titration) GSK3α
# T2 construct: purchased PV3322/30387A
# T2 sequence (P49840 whole entry): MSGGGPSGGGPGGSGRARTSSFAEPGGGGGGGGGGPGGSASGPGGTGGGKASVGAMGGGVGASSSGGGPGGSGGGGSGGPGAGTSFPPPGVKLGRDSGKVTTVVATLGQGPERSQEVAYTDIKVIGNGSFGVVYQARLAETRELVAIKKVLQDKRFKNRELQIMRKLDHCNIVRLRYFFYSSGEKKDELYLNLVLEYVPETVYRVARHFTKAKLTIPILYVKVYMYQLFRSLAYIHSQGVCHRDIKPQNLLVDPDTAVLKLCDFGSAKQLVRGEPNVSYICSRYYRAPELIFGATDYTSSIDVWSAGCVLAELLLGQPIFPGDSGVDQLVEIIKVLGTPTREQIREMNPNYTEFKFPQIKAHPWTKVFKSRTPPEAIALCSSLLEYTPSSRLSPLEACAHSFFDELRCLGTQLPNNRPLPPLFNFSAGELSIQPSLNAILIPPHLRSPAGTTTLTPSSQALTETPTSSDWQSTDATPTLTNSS
# Experimental: To each well of a 384 well plate, 5 μl of 2X substrate/2X enzyme in 1X kinase reaction buffer was added. Then, 5 μl of 2X ATP in 1X kinase reaction buffer was added in order to initiate the kinase reaction. The plate was briefly mixed and the 10 μl kinase reaction was allowed to incubate for 60 minutes at room temperature. To each well, 5 μl of 3X chymotrypsin in development buffer B was added. The plate was briefly mixed and the 15 μl reaction was allowed to incubate for 60 minutes at room temperature. To each well, 5 μl of 4X Tb-labeled SA in stop buffer was added. The plate was briefly mixed and the 20 μl reactions read. […] The dichroic 2 mirror was used. A TR-FRET ratio=Em520/Em495 was calculated. An ATP titration was performed in order to determine the optimal amount of ATP to use per well for subsequent IC50 experiments. […] The assay was carried out using the general assay procedure listed above except with the following modification: a 2X ATP titration series was diluted 2 fold in 1X kinase buffer. […] The three fold titration of compounds was performed in a separate 384 well plate in 2X substrate (800 nM, therefore 1X=400 nM)/2X ATP (20 μM, therefore 1X=10 μM) in 1X kinase buffer/3% DMSO. Then 5 μl of the titration series of each compound was added to the appropriate wells in the 384 well assay plate. […]
# T1 sequence (P49841 whole entry): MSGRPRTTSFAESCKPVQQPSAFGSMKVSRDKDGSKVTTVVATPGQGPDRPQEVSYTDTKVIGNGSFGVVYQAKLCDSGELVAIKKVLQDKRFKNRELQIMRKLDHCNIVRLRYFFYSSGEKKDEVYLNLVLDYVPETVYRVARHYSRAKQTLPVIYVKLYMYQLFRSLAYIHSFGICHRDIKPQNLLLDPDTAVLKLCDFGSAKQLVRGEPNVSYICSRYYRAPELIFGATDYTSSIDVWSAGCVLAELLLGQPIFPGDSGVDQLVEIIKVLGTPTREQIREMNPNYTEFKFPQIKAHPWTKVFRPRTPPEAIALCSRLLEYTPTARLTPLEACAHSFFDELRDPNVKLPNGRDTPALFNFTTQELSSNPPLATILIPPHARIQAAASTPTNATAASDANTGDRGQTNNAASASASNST
smiles,measurement,setting,value
Nc1ncnc2c1ncn2[C@@H]1O[C@H](COP(=O)(O)OP(=O)(O)OP(=O)(O)O)[C@@H](O)[C@H]1O [ATP],EC50,[1],~10 µM
same,EC50,[2],~10 µM
